Source: paper PMC7023430, “4-Aminobenzoic Acid Derivatives: Converting Folate Precursor to Antimicrobial and Cytotoxic Agents” (Biomolecules, 2019)
Values after ≈ are worked out from the molar mass of the structure shown. Like-named read-outs stand apart in the source and are kept apart here.

How the values were obtained:
[1] = system: Mycobacterium kansasii 235/80; assay: Antimycobacterial micromethod in Šula's medium, M. kansasii 235/80; assay type: cell-based
Candida tropicalis 156 = assay: Antifungal microdilution broth method, C. tropicalis; assay type: cell-based
In short: (§1)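 Duplicate microdilution tests in RPMI-1640 (2% glucose, L-glutamine, MOPS, pH 7.0) with twofold compound dilutions from DMSO gave visually determined MICs. Results counted only when duplicates agreed to within one step; protocol adapted from EUCAST.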

Candida krusei E28 = assay: Antifungal microdilution broth method, C. krusei; assay type: cell-based; conditions: Pichia kudriavzevii
In short: as §1

[2] = system: Lichtheimia corymbifera 272; assay: Antifungal microdilution broth method, L. corymbifera; assay type: cell-based
In short: as §1

[3] = system: Escherichia coli ATCC 25922, CCM 3954; assay: Antibacterial microdilution broth method, E. coli; assay type: cell-based; conditions: Escherichia coli
[4] = system: Mycobacterium avium 330/88; assay: Antimycobacterial micromethod in Šula's medium, M. avium; assay type: cell-based
Candida glabrata 20/I = assay: Antifungal microdilution broth method, C. glabrata; assay type: cell-based; conditions: Nakaseomyces glabratus
In short: as §1

[5] = system: Staphylococcus epidermidis H 6966/08; assay: Antibacterial microdilution broth method, S. epidermidis; assay type: cell-based; conditions: Staphylococcus epidermidis, H6966/08
[6] = system: Pseudomonas aeruginosa ATCC 27853, CCM 3955; assay: Antibacterial microdilution broth method, P. aeruginosa; assay type: cell-based; conditions: Pseudomonas aeruginosa, P. aeruginosa
Trichosporon asahii 1188 = assay: Antifungal microdilution broth method, T. asahii; assay type: cell-based
In short: as §1

[7] = system: M. kansasii 6509/96 (clinical isolate); assay: Antimycobacterial micromethod in Šula's medium, M. kansasii 6509/96; assay type: cell-based; conditions: Mycobacterium kansasii
[8] = system: Enterococcus faecalis ATCC 29212, CCM 4224; assay: Antibacterial microdilution broth method, E. faecalis; assay type: cell-based; conditions: Enterococcus faecalis
[9] = system: Klebsiella pneumoniae D 11750/08; assay: Antibacterial microdilution broth method, K. pneumoniae; conditions: K. pneumoniae D 11750/08; for MIC KP 24 h: 24 h incubation; for MIC KP 48 h: 48 h incubation
[10] = system: Trichophyton interdigitale 445; assay: Antifungal microdilution broth method, T. interdigitale; assay type: cell-based
In short: as §1

[11] = system: methicillin-resistant Staphylococcus aureus ATCC 43300, CCM 4750 (MRSA); assay: Antibacterial microdilution broth method, MRSA; assay type: cell-based; conditions: Staphylococcus aureus
[12] = system: ESBL-positive Klebsiella pneumoniae J 14368/08
[13] = 235/80, 168 h, 7 days incubation at 37 °C, read-out: MIC M. kansasii 235/80 7 d
[14] = 235/80, 336 h, 14 days incubation at 37 °C, read-out: MIC M. kansasii 235/80 14 d
[15] = 235/80, 504 h, 21 days incubation at 37 °C, read-out: MIC M. kansasii 235/80 21 d
[16] = 24 h incubation, read-out: MIC EC 24 h
[17] = 48 h incubation, read-out: MIC EC 48 h
[18] = 330/88, 336 h, 14 days incubation at 37 °C, read-out: MIC M. avium 330/88 14 d
[19] = 330/88, 504 h, 21 days incubation at 37 °C, read-out: MIC M. avium 330/88 21 d
[20] = S. epidermidis, 24 h incubation, read-out: MIC SE 24 h
[21] = S. epidermidis, 48 h incubation, read-out: MIC SE 48 h
[22] = 24 h incubation, read-out: MIC PA 24 h
[23] = 48 h incubation, read-out: MIC PA 48 h
[24] = 168 h, 7 days incubation at 37 °C, read-out: MIC M. kansasii 6509/96 7 d
[25] = 336 h, 14 days incubation at 37 °C, read-out: MIC M. kansasii 6509/96 14 d
[26] = 504 h, 21 days incubation at 37 °C, read-out: MIC M. kansasii 6509/96 21 d
[27] = 24 h incubation, read-out: MIC EF 24 h
[28] = 48 h incubation, read-out: MIC EF 48 h
[29] = 24 h incubation, read-out: MIC MRSA 24 h
[30] = 48 h incubation, read-out: MIC MRSA 48 h

Row | SMILES | MIC [1, 13] [µM] | MIC [1, 14] [µM] | MIC [1, 15] [µM] | MIC (Candida tropicalis 156; 24 h, read-out: MIC CT 24 h) [µM] | MIC (Candida tropicalis 156; 48 h, read-out: MIC CT 48 h) [µM] | MIC (Candida krusei E28; 24 h, read-out: MIC CK 24 h) [µM] | MIC (Candida krusei E28; 48 h, read-out: MIC CK 48 h) [µM] | MIC ([2]; 24 h, read-out: MIC LC 24 h) [µM] | MIC ([2]; 48 h, read-out: MIC LC 48 h) [µM] | MIC [3, 16] [µM] | MIC [3, 17] [µM] | MIC [4, 18] [µM] | MIC [4, 19] [µM] | MIC (Candida glabrata 20/I; 24 h, read-out: MIC CG 24 h) [µM] | MIC (Candida glabrata 20/I; 48 h, read-out: MIC CG 48 h) [µM] | MIC [5, 20] [µM] | MIC [5, 21] [µM] | MIC [6, 22] [µM] | MIC [6, 23] [µM] | MIC (Trichosporon asahii 1188; 24 h, read-out: MIC TA 24 h) [µM] | other results
1 | O=C(O)c1ccc(N=Cc2cccc(Cl)c2O)cc1 [1m, 4-[(3-Chloro-2-hydroxybenzylidene)amino]benzoic acid] | 500 (≈ 138 µg/mL) | 500 (≈ 138 µg/mL) | 500 (≈ 138 µg/mL) | 62.5 (≈ 17.2 µg/mL) | 62.5 (≈ 17.2 µg/mL) | 250 (≈ 68.9 µg/mL) | 250 (≈ 68.9 µg/mL) | 500 (≈ 138 µg/mL) | 500 (≈ 138 µg/mL) | > 500 | > 500 | 1000 (≈ 276 µg/mL) | 1000 (≈ 276 µg/mL) | 62.5 (≈ 17.2 µg/mL) | 62.5 (≈ 17.2 µg/mL) | 500 (≈ 138 µg/mL) | 500 (≈ 138 µg/mL) | > 500 | > 500 | 125 (≈ 34.5 µg/mL) | MIC ([5]; time not stated, read-out: MIC, S. epidermidis): ≥ 250 µM; MIC (Trichosporon asahii 1188; 48 h, read-out: MIC TA 48 h): 125 µM (≈ 34.5 µg/mL); MIC [7, 24]: 250 µM (≈ 68.9 µg/mL); MIC [7, 25]: 500 µM (≈ 138 µg/mL); MIC [7, 26]: 500 µM (≈ 138 µg/mL); MIC [8, 27]: > 500 µM; MIC [8, 28]: > 500 µM; MIC KP 24 h [9]: >500 µM; MIC KP 48 h [9]: >500 µM; MIC ([10]; 72 h, read-out: MIC TI 72 h): 125 µM (≈ 34.5 µg/mL); MIC ([10]; 120 h, read-out: MIC TI 120 h): 125 µM (≈ 34.5 µg/mL); MIC [11, 29]: > 500 µM; MIC [11, 30]: > 500 µM; MIC KP-E 24 h [12]: >500 µM; MIC KP-E 48 h [12]: >500 µM
2 | O=C(O)c1ccc(N=Cc2cc(Cl)cc(Cl)c2O)cc1 [1n, 4-[(3,5-Dichloro-2-hydroxybenzylidene)amino]benzoic acid] | 500 (≈ 155 µg/mL) | 500 (≈ 155 µg/mL) | 500 (≈ 155 µg/mL) | 250 (≈ 77.5 µg/mL) | 250 (≈ 77.5 µg/mL) | 125 (≈ 38.8 µg/mL) | 125 (≈ 38.8 µg/mL) | 500 (≈ 155 µg/mL) | 500 (≈ 155 µg/mL) | > 500 | > 500 | 1000 (≈ 310 µg/mL) | 1000 (≈ 310 µg/mL) | 125 (≈ 38.8 µg/mL) | 125 (≈ 38.8 µg/mL) | 250 (≈ 77.5 µg/mL) | 250 (≈ 77.5 µg/mL) | > 500 | > 500 | 125 (≈ 38.8 µg/mL) | MIC (Trichosporon asahii 1188; 48 h, read-out: MIC TA 48 h): 125 µM (≈ 38.8 µg/mL); MIC [7, 24]: 250 µM (≈ 77.5 µg/mL); MIC [7, 25]: 500 µM (≈ 155 µg/mL); MIC [7, 26]: 500 µM (≈ 155 µg/mL); MIC [8, 27]: > 500 µM; MIC [8, 28]: > 500 µM; MIC KP 24 h [9]: >500 µM; MIC KP 48 h [9]: >500 µM; MIC ([10]; 72 h, read-out: MIC TI 72 h): 250 µM (≈ 77.5 µg/mL); MIC ([10]; 120 h, read-out: MIC TI 120 h): 250 µM (≈ 77.5 µg/mL); MIC [11, 29]: 250 µM (≈ 77.5 µg/mL); MIC [11, 30]: 250 µM (≈ 77.5 µg/mL); MIC KP-E 24 h [12]: >500 µM; MIC KP-E 48 h [12]: >500 µM
